± gives the expanded uncertainty stated by the source.
Assay: activity coefficient (dimensionless); of the first substance listed, at infinite dilution; xn = mol fraction of the nth substance listed
Settings: 101.3 kPa, Liquid, Differential ebulliometry, x1 = 0

Compound: C1CCCCC1 [cyclohexane] + NC1CCCCC1
- activity coefficient (373.15 K): 1.24 ± 0.15
- activity coefficient (393.15 K): 1.18 ± 0.14

Compound: NC1CCCCC1 [cyclohexylamine] + C1CCCCC1
- activity coefficient (333.15 K): 1.77 ± 0.21
- activity coefficient (348.15 K): 1.49 ± 0.18

Compound: NC1CCCCC1 [cyclohexylamine] + CC1CCCCC1
- activity coefficient (353.15 K): 1.87 ± 0.22
- activity coefficient (373.15 K): 1.64 ± 0.2
- activity coefficient (393.15 K): 1.48 ± 0.18

Compound: NC1CCCCC1 [cyclohexylamine] + CCC1CCCCC1
- activity coefficient (353.15 K): 1.52 ± 0.18
- activity coefficient (373.15 K): 1.45 ± 0.17
- activity coefficient (393.15 K): 1.36 ± 0.16

Compound: CCC1CCCCC1 [ethylcyclohexane] + NC1CCCCC1
- activity coefficient (353.15 K): 1.57 ± 0.19
- activity coefficient (373.15 K): 1.45 ± 0.17
- activity coefficient (393.15 K): 1.42 ± 0.17

Compound: CC1CCCCC1 [methylcyclohexane] + NC1CCCCC1
- activity coefficient (333.15 K): 1.19 ± 0.14
- activity coefficient (353.15 K): 1.26 ± 0.15
- activity coefficient (373.15 K): 1.25 ± 0.15

Reference: the NIST ThermoML archive (doi:10.1016/j.fluid.2011.09.010)
